≈ marks a conversion by molar mass, not a printed value.
assay: Solubility in Cl free phosphate buffer pH 6.8; format: physicochemical; conditions: aqueous buffer; Cl free phosphate buffer (0.067 M) pH 6.8

| SMILES | solubility [µg/mL] |
| --- | --- |
| COCC(=O)O[C@@]1(C#Cc2cccc(C)c2)CCC[C@@H]2[C@H]1CCN2C(=O)OC [Example 10, (3aR,4S,7aR)-4-(2-Methoxy-acetoxy)-4-m-tolylethynyl-octahydro-indole-1-carboxylic acid methyl ester] | 47 (≈ 122 µM) |
| COC(=O)N1CC[C@@H]2[C@H]1CCC[C@]2(C#Cc1cccc(C)c1)OC(C)=O [Example 13, (3aR,4S,7aR)-4-Acetoxy-4-m-tolylethynyl-octahydro-indole-1-carboxylic acid methyl ester] | 12 (≈ 33.8 µM) |
| CCCC(=O)O[C@@]1(C#Cc2cccc(C)c2)CCC[C@@H]2[C@H]1CCN2C(=O)OC [Example 15, (3aR,4S,7aR)-4-Butyryloxy-4-m-tolylethynyl-octahydro-indole-1-carboxylic acid methyl ester] | 2 (≈ 5.22 µM) |
| CCCCCC(=O)O[C@@]1(C#Cc2cccc(C)c2)CCC[C@@H]2[C@H]1CCN2C(=O)OC [Example 17, (3aR,4S,7aR)-4-Hexanoyloxy-4-m-tolylethynyl-octahydro-indole-1-carboxylic acid methyl ester] | < 2 |
| CCCCCCCC(=O)O[C@@]1(C#Cc2cccc(C)c2)CCC[C@@H]2[C@H]1CCN2C(=O)OC [Example 18] | < 2 |
| CCCCC(=O)O[C@@]1(C#Cc2cccc(C)c2)CCC[C@@H]2[C@H]1CCN2C(=O)OC [Example 22, (3aR,4S,7aR)-4-Pentanoyloxy-4-m-tolylethynyl-octahydro-indole-1-carboxylic acid methyl ester] | < 2 |
| COC(=O)N1CC[C@@H]2[C@H]1CCC[C@]2(C#Cc1cccc(C)c1)OC(=O)CCC(=O)N1CCCC1 [Example 38, (3aR,4S,7aR)-4-(4-Oxo-4-pyrrolidin-1-yl-butyryloxy)-4-m-tolylethynyl-octahydro-indole-1-carboxylic acid methyl ester] | 27 (≈ 57.9 µM) |
| COC(=O)N1CC[C@@H]2[C@H]1CCC[C@]2(C#Cc1cccc(C)c1)OC(=O)CCCC(N)=O [Example 55, (3aR,4S,7aR)-methyl 4-(5-amino-5-oxopentanoyloxy)-4-(m-tolylethynyl)octahydro-1H-indole-1-carboxylate] | 93 (≈ 218 µM) |
| COC(=O)CCCC(=O)O[C@@]1(C#Cc2cccc(C)c2)CCC[C@@H]2[C@H]1CCN2C(=O)OC [Example 56, (3aR,4S,7aR)-1-(methoxycarbonyl)-4-(m-tolylethynyl)octahydro-1H-indol-4-yl methyl glutarate] | 97 (≈ 220 µM) |
| CCN(CC)C(=O)CCC(=O)O[C@@]1(C#Cc2cccc(C)c2)CCC[C@@H]2[C@H]1CCN2C(=O)OC [Example 57, (3aR,4S,7aR)-methyl 4-(4-(diethylamino)-4-oxobutanoyloxy)-4-(m-tolylethynyl)octahydro-1H-indole-1-carboxylate] | 19 (≈ 40.5 µM) |
| CNC(=O)CCC(=O)O[C@@]1(C#Cc2cccc(C)c2)CCC[C@@H]2[C@H]1CCN2C(=O)OC [Example 58, (3aR,4S,7aR)-methyl 4-(4-(methylamino)-4-oxobutanoyloxy)-4-(m-tolylethynyl)octahydro-1H-indole-1-carboxylate] | 87 (≈ 204 µM) |
| COC(=O)N1CC[C@@H]2[C@H]1CCC[C@]2(C#Cc1cccc(C)c1)OC(=O)CCC(=O)N(C)C [Example 59, (3aR,4S,7aR)-methyl 4-(4-(dimethylamino)-4-oxobutanoyloxy)-4-(m-tolylethynyl)octa hydro-1H-indole-1-carboxylate] | < 2 |
| COC(=O)N1CC[C@@H]2[C@H]1CCC[C@]2(C#Cc1cccc(C)c1)OC(=O)CC(N)=O [Example 60, (3aR,4S,7aR)-methyl 4-(3-amino-3-oxopropanoyloxy)-4-(nm-tolylethynyl)octahydro-1H-indole-1-carboxylate] | 110 (≈ 276 µM) |
| CNC(=O)CC(=O)O[C@@]1(C#Cc2cccc(C)c2)CCC[C@@H]2[C@H]1CCN2C(=O)OC [Example 61, (3aR,4S,7aR)-methyl 4-(3-(methylamino)-3-oxopropanoyloxy)-4-(m-tolylethynyl)octahydro-1H-indole-1-carboxylate] | 11 (≈ 26.7 µM) |
| COC(=O)CCC(=O)O[C@@]1(C#Cc2cccc(C)c2)CCC[C@@H]2[C@H]1CCN2C(=O)OC [Example 62, ((3aR,4S,7aR)-1-(methoxycarbonyl)-4-(m-tolylethynyl)octahydro-1H-indol-4-ylmethyl succinate] | 164 |
| CCCNC(=O)CCC(=O)O[C@@]1(C#Cc2cccc(C)c2)CCC[C@@H]2[C@H]1CCN2C(=O)OC [Example 64, (3aR,4S,7aR)-methyl 4-(4-oxo-4-(propylamino)butanoyloxy)-4-(m-tolylethynyl)octahydro-1H-indole-1-carboxylate] | 33 (≈ 72.6 µM) |
| COC(=O)CC(=O)O[C@@]1(C#Cc2cccc(C)c2)CCC[C@@H]2[C@H]1CCN2C(=O)OC [Example 66, (3aR,4S,7aR)-1-(methoxycarbonyl)-4-(m-tolylethynyl)octahydro-1H-indol-4-yl methyl malonate] | 100 (≈ 242 µM) |
| CCNC(=O)CCC(=O)O[C@@]1(C#Cc2cccc(C)c2)CCC[C@@H]2[C@H]1CCN2C(=O)OC [Example 67, (3aR,4S,7aR)-methyl 4-(4-(ethylamino)-4-oxobutanoyloxy)-4-(m-tolylethynyl)octahydro-1H-indole-1-carboxylate] | 123 (≈ 279 µM) |
| CCNC(=O)CCCC(=O)O[C@@]1(C#Cc2cccc(C)c2)CCC[C@@H]2[C@H]1CCN2C(=O)OC [Example 68, (3aR,4S,7aR)-methyl 4-(5-(ethylamino)-5-oxopentanoyloxy)-4-(m-tolylethynyl)octahydro-1H-indole-1-carboxylate] | 386 (≈ 849 µM) |
| COC(=O)N1CC[C@@H]2[C@H]1CCC[C@]2(C#Cc1cccc(C)c1)OC(=O)CCCC(=O)NC(C)C [Example 69, (3aR,4S,7aR)-methyl 4-(5-(isopropylamino)-5-oxopentanoyloxy)-4-(m-tolylethynyl)octahydro-1H-indole-1-carboxylate] | 28 (≈ 59.8 µM) |
| CCCNC(=O)CCCC(=O)O[C@@]1(C#Cc2cccc(C)c2)CCC[C@@H]2[C@H]1CCN2C(=O)OC [Example 70, (3aR,4S,7aR)-methyl 4-(5-oxo-5-(propylamino)pentanoyloxy)-4-(m-tolylethynyl)octahydro-1H-indole-1-carboxylate] | 32 (≈ 68.3 µM) |

assay: In-vitro clearance in rat liver microsomes (metabolic stability, compound depletion); conditions: not given

| SMILES | microsomal CLint at 1 μM [µL/min/mg] |
| --- | --- |
| COC(=O)N1CC[C@@H]2[C@H]1CCC[C@]2(C#Cc1cccc(C)c1)OC(=O)[C@@H](N)CC(C)C [Example 5, (3aR,4S,7aR)-4-((S)-2-Amino-4-methyl-pentanoyloxy)-4-m-tolylethynyl-octahydro-indole-1-carboxylic acid methyl ester] | 48 |
| COC(=O)N1CC[C@@H]2[C@H]1CCC[C@]2(C#Cc1cccc(C)c1)OC(=O)[C@@H](N)CCSC [Example 6, (3aR,4S,7aR)-4-((S)-2-Amino-4-methylsulfanyl-butyryloxy)-4-m-tolylethynyl-octahydro-indole-1-carboxylic acid methyl ester] | 51 |
| CC[C@H](N)C(=O)O[C@@]1(C#Cc2cccc(C)c2)CCC[C@@H]2[C@H]1CCN2C(=O)OC [Example 30, (3aR,4S,7aR)-4-((S)-2-Amino-butyryloxy)-4-m-tolylethynyl-octahydro-indole-1-carboxylic acid methyl ester] | 375 |

Source: patent US9067881B2, “4-tolyl-ethynyl-octahydro-indole-1-ester derivatives” (NOVARTIS AG, priority 2011, dated 2015)
